Experiments:
[1] = system: C57BL/6 male mice; assay: Indirect calorimetry (PhenoMaster); assay type: in vivo, mouse; details: 1 mg·kg-1day-1 intraperitoneally, 10 days
Procedure: 6-week-old C57BL/6 male mice and CIDEA reporter mice were used according to the approved protocols by Institutional Animal Care and Use Committees of Seoul National University (SNU-201107-1, SNU-201221-3) for in vivo experiments. The mice were housed under a 12 h-light/12 h-dark cycle condition with free access to a normal chow diet (NCD, Purina Lab, 38057, protein: 24.52% calories, carbohydrate: 63.07% calories, and fat: 12.41% calories) and water at 22±1° C. The mice were treated intraperitoneally with LJ-4378 (1 mg·kg-1day-1) dissolved in 0.2% DMSO (diluted in PBS) for 10 days.
(§1) Indirect calorimetry was performed using a PhenoMaster (TSE Systems) to measure expenditure (EE), VO2, VCO2, activity, and food intake. Body components were measured by nuclear magnetic resonance scanning Echo MRI-700 (Echo Medical Systems).

[2] = system: brown adipocytes; assay: Lipolysis: glycerol and free fatty acid levels in conditioned medium; assay type: cell-based, mouse; details: 0.1 μM, 24 hours
Procedure: (§2) Adipocyte precursor cells capable of differentiating into brown adipocytes were isolated from mouse brown adipose tissue. Cells were cultured in Dulbecco's modified Eagle's medium (Welgene, LM001-07) containing 10% fetal bovine serum (FBS, Gibco, 16000044) and 1% Penicillin Streptomycin (Welgene, LS202-02) at 37° C. in a humidified atmosphere with 5% CO2. When the cells reached about 100% confluency, the cells were exposed to a differentiation medium supplemented with 2.5 mM isobutyl methylxanthine (IBMX, Cayman, I5879), 0.125 mM indomethacin (Cayman, 70270), 1 μM dexamethasone (Cayman), 1 μg/mL insulin (Sigma, I9278), and 1 nM triiodothyronine (T3, Cayman, 6028) for 3 days for adipogenesis. Then, the cells were maintained in a growth medium containing 1 μg/mL insulin and 1 nM triiodothyronine (T3) for 3 days.
The free fatty acid (FFA) levels in the medium were measured using an NEFA reagent (WAKO, 436-91693) according to the manufacturer's product protocol.
Glycerol and free fatty acid (FFA) levels in a medium were measured using a glycerol reagent (Sigma Aldrich, F6428) and a NEFA reagent (WAKO, 436-91693) according to the manufacturer's product protocols.

[3] = system: brown adipocytes; assay: Oxygen consumption rate (XFp analyzer); assay type: cell-based, mouse; details: 0.1 μM, 24 hours
Procedure: Oxygen consumption rate (OCR) was measured using an XFp analyzer. Cells were cultured in XF DMEM basal medium (Agilent, 103575-100, pH 7.4) supplemented with 4 mM L-glutamine (Sigma, G8540) and 25 mM D-glucose (Sigma, G7021) at 37° C. The XFp Cell Mitochondrial Stress Test Kit (Agilent, 103010-100) was prepared and calculated sequentially with optimal final concentrations of 2.5 μM oligomycin, 0.5 μM FCCP and 0.5 μM rotenone/antimycin A and basal, maximal and proton leakage. Then, the OCR was normalized to protein concentration.

[4] = system: brown adipocytes; assay: Immunoblot of PKA downstream proteins (P-HSL, P-CREB) in brown adipocytes; assay type: cell-based, mouse
Procedure: as §2
In the case of Western blots, the primary antibodies used for Western blots are summarized in [Table 2] above. An anti-rabbit horseradish peroxidase antibody (1:3000, Thermo Fisher, 31460) and an anti-mouse horseradish peroxidase antibody (1:3000, Jackson, 115-035-174) were used as secondary antibodies. All antibodies were diluted in a blocking buffer (5% skimmed milk or 5% bovine serum albumin in TBST). Western blot images were acquired using a Fusion Solo chemiluminescence imaging system (Vilber Lourmat) and analyzed with Evolution Capt software (version 17.03). NIH ImageJ software was used for quantification.

[5] = system: HFD-fed mice; assay: Diet-induced obesity model (body weight, body composition, tissue weight, H&E); assay type: in vivo, mouse; details: 1 mg kg-1 once daily, 10 days
Procedure: For a diet-induced obesity model, mice were fed a high-fat diet (HFD)(Research Diets, D12492, protein: 20% kcal, carbohydrate: 20% kcal, and fat: 60% kcal) for 8 weeks. Then, LJ-4378 (1 mg kg-1) was injected into the mice once daily for 10 days.
as §1
Mice fed a HFD were used as a diet-induced obesity model. Body weight changes were monitored during treatment, and fat and body components of the mice were measured after treatment.
For histological analysis, adipose tissue was fixed in 10% formalin and then embedded in a paraffin block. Paraffin sections were stained with hematoxylin/eosin (H&E).

SMILES: CCCCC#Cc1nc(N)c2ncn([C@@H]3SC[C@@H](O)[C@H]3O)c2n1 [LJ-4378, 2-(6-amino-2-(hex-1-yn-1-yl)-9H-purin-9-yl)tetrahydrothiophene-3,4-diol]
- increase of energy expenditure [1]: 17.0%
- increase of oxygen consumption [1]: 17.8%
- free fatty acid (FFA) level, fold increase ([2]; FIG. 2): 1.92±0.03 fold
- glycerol level in conditioned medium, fold change ([2]; FIG. 3B): 1.61±0.07 fold
- FFA level in conditioned medium, fold change ([2]; FIG. 3C): 1.59±0.1 fold
- increase of OCR related to ATP production [3]: 29.3%
- increase of OCR related to basal [3]: 30.5%
- increase of OCR related to maximal [3]: 49.1%
- P-CREB, fold increase ([4]; 0.1 μM, 24 hours, FIG. 3D): 2.32±0.05 fold
- P-HSL, fold increase ([4]; 0.1 μM, 24 hours, FIG. 3D): 2.10±0.12 fold
- P-HSL (serine 660) expression level, fold increase ([4]; 10^−5, 4 hours): 6.87±0.69 fold
- P-HSL (serine 660) expression level, fold increase ([4]; 10^−7, 4 hours): 6.64±0.34 fold
- P-HSL (serine 660) expression level, fold increase ([4]; 10^−9 M, 4 hours): 3.03±0.21 fold
- P-HSL (serine 660) expression level, fold increase ([4]; 10^−11 M, 4 hours): 1.55±0.11 fold
- reduction in body weight [5]: 8.24%
- reduction in fat mass [5]: 24.18%
- reduction in weight of gWAT [5]: 18.6%
- reduction in weight of iWAT [5]: 30.1%

From patent US20260027121A1, “LIGAND ACTING ON ADENOSINE RECEPTORS AND COMPOSITION COMPRISING SAME FOR PREVENTION, ALLEVIATION, OR TREATMENT OF OBESITYS” (FUTURE MEDICINE CO., LTD., priority 2022, published 2026)
